According to patent publication US7498292B2, “Combinatorial libraries of autoinducer analogs, autoinducer agonists and antagonists, and methods of use thereof” (The Research Foundation of State University of New York, priority 2002, dated 2009):
“Also recorded” adds a separate entry of the source. Where two headings read alike, the source gives them in different places.

Assays:
LasR [1] = molecular target: T1, LasR (Pseudomonas aeruginosa, UniProt P25084); assay: lasB-lacZ reporter assay, E. coli MG4 (pKDT37); format: cell-based, P. aeruginosa
T1 construct: endogenous in cells; host or cells: P. aeruginosa PAO-JP2 (lasI, rhlI) harboring plasI-LVAgfp
Protocol: E. coli strain MG4 (pKDT37) was grown overnight in Supplemented A media with 100 μg/mL ampicillin at 30° C. and diluted 1:100 in the same media. 1 mL of this culture was added to a test tube containing AI1 or 3-oxo-C12-D12 that had been previously aliquoted and dried. Following a 6 hour incubation at 30° C., β-galactosidase activity was determined using standard methods (Platt et al., Assays of the lac operon Enzymes In: Experiments in Molecular Genetics, Cold Spring Harbor Laboratory Press, Cold Spring Harbor, N.Y., pp. 352-355 (1972), which is hereby incorporated by reference in its entirety).
One of the new agonist structures identified from the library, D12, is 2-aminocyclohexanol (FIG. 5B). […] 3-oxo-C12-D12, containing the natural side chain, was synthesized in solution phase, and tested with both the lasI-gfp reporter as well as a lasB-lacZ reporter in Escherichia coli. E. coli strain MG4 harboring plasmid pKDT37 expresses lasR and contains a lacZ reporter gene controlled by a LasR-AI1 inducible lasB promoter (Passador et al., J. Bacteriol. 178:5995-6000 (1996), which is hereby incorporated by reference in its entirety). […] It also provides strong evidence that the agonist activity in P. aeruginosa is LasR dependent.

LasR [2] = molecular target: T1, LasR; assay: lasI-gfp reporter agonist assay, PAO-JP2 (plasI-LVAgfp); format: cell-based, P. aeruginosa; details: for agonist activity (induction of lasI-gfp reporter): PAO-JP2 (plasI-LVAgfp), compounds made in solution phase, increasing concentrations (1, 100, 400 μM)
Description: Since this strain lacks the ability to produce natural AIs due to disruption of both AI synthase genes, activation of LasR relies on the addition of exogenous AI1. Expression of gfp (encoding green fluorescent protein) is under control of the LasR-AI1 inducible lasI promoter, allowing rapid screening for LasR agonists by measuring the level of GFP expression in their presence.
(§1) P. aeruginosa strain PAO-JP2 (lasI, rhlI) (Rahme et al., Science 268:1899-1902 (1995), which is hereby incorporated by reference in its entirety) harboring plasI-LVAgfp (Pearson et al., Proc. Natl Acad. Sci. USA 91:197-201 (1994), which is hereby incorporated by reference in its entirety) was grown at 37° C. in LB with 300 μg/ml carbenicillin. For agonist assays, an overnight culture was diluted to an OD600 of 0.1 and transferred to wells of a 96-well plate on which test compounds had previously been added and dried. The final concentration of each analog tested was roughly 400 μM, although this is an overestimate due to purity issues. Cells were then incubated for 6 hours at 37° C. with vigorous shaking. GFP expression was detected with a Molecular Imager (BioRad) (488 nm excitation and 695 nm bandpass filter) and quantified with ImageQuant software. The OD600 of cultures was determined to normalize GFP expression to cell density.
(§2) Reporter strains were grown overnight in LB plus 300 μg/ml carbenicillin at 37° C. and diluted to an OD600 of 0.1. Following an incubation of 1 hour, 200 μl of cell culture was added to individual wells of a 96 well plate containing appropriate amount of test compound(s). Plates were incubated for 6 hours and then scanned for fluorescence emission with a Molecular Imager (488 nm excitation and 695 nm bandpass filter). Fluorescence was quantified with ImageQuant software.

RhlR [3] = molecular target: T2, RhlR (Pseudomonas aeruginosa, UniProt P54292); format: cell-based, P. aeruginosa; details: for AI2 agonist activity (induction of rhlI-gfp reporter): in the presence of 1 μM AI1, 10, 100, 400 μM analog
T2 construct: an RhlR-AI2 controlled rhlI-gfp reporter, PAO-JP2 (prhlI-LVAgfp); endogenous in cells; host or cells: P. aeruginosa PAO-JP2 (prhlI-LVAgfp)
Protocol: Thus, it was hypothesized that a 5- or 6-membered ring with a keto or hydroxyl group (or other hydrogen bond acceptor) adjacent to the amine is sufficient for both binding and activation of LasR. To test this hypothesis, the series of molecules shown in FIG. 13 (compounds 14) was synthesized.
as §2
The C4 compounds (A12 and 5-8) were analyzed for agonist activity using PAO-JP2 (prhlI-LVAgfp) (FIGS. 14C and D). Induction of GFP expression in this reporter requires addition of both AI1 and AI2. The AI2 control and agonist assays, therefore, were performed in the presence of 1 μM AI1 and increasing concentrations of AI2 or analog (FIGS. 14C and D).

RhlR [4] = assay: rhlI-gfp reporter antagonist assay, PAO-JP2 (prhlI-LVAgfp); format: cell-based, P. aeruginosa; details: competing against 1 μM AI1 and 10 μM AI2
Protocol: Each compound in the library was tested for antagonist activity using the same reporter strain, PAO-JP2 (plasI-LVAgfp) (de Kievit et al., Appl. Environ. Microbiol. 67:865-1873 (2001), which is hereby incorporated by reference in its entirety) to find compounds that could compete against AI1 and reduce GFP expression. The methods were the same as described in Example 2 (GFP Reporter Assay), except that 1 μM AI1 was added to each well in combination with the library compound. The fluorescence/OD600 of each compound competing against AI1 was reported relative to the fluorescence/OD600 of the positive control of AI1 alone, which was set to 1. When strain PAO-JP2 (prhlI-LVAgfp) was used, the positive control was 1 μM AI1 and 10 μM AI2.
3- oxo-C12-D10 was synthesized in solution phase, where the natural side chain was coupled with D10 and purified by chromatography. To determine if the same structural motif can be applied to inhibition of the RhlR-AI2 interaction, C4-D10 was also synthesized. Assays were performed with both the lasI-gfp reporter PAO-JP2 (plasI-LVAgfp) and an RhlR-AI2 controlled rhlI-gfp reporter, PAO-JP2 (prhlI-LVAgfp) (FIGS. 10A-C) (de Kievit et al., Appl. Environ. Microbiol. 67:865-1873 (2001), which is hereby incorporated by reference in its entirety).
as §2
Next the ability of 2 and 3 to inhibit the rhlI-gfp reporter strain PAO-JP2 (prhlI-LVAgfp) was tested, since this expression is also AI1-dependent.

PAO1 (pTdK-GFP) biofilm = assay: static biofilm assay, PAO1 (pTdK-GFP); format: cell-based, P. aeruginosa
Protocol: (§3) Compound 3 was tested for its effect on biofilm development in a 24-hour assay that looks at the early stages of biofilm formation. […] Cultures were grown at 37° C. with shaking for 30 minutes, and then allowed to sit at 37° C. for an additional 23.5 hours. Coverslips were then rinsed and placed on slides for visualization using an MRC1024 Laser Scanning Microscope (BioRad) with a Nikon Fluor-60X oil emersion objective lens (NA=1.4), 488 nm Argon Laser and OG515 filter.
The same assay was run with strain PAO-1 (pTdK-GFP), and no exogenous autoinducers were added. […] The above results provide additional evidence that compound 3 interferes with QS signaling and reduces the production of important virulence factors.

[5] = system: PAO-JP2 (pTdK-GFP) biofilm; assay: static biofilm assay, PAO-JP2 (pTdK-GFP); format: cell-based, P. aeruginosa; details: PAO-JP2 (pTdK-GFP) with exogenous AIs, 24-hour static assay
Protocol: as §3

Elastase B [6] = assay: elastase (Elastin Congo Red) assay, wild type strain PAO1; format: cell-based, P. aeruginosa PAO1; details: wild type PAO1, no exogenous autoinducers
Protocol: (§4) Pyocyanin, elastase, and biofilm were assayed as previously described (Smith et al., Chem. Biol. 10:81-89 (2003), which is hereby incorporated by reference in its entirety). Elastase activity produced by P. aeruginosa in the presence of AIs and competing 3-oxo-C12-D10 was determined by measuring breakdown of the substrate Elastin Congo Red.
(§5) For the elastase B assay, cells (PAO-JP2) were grown overnight in PTSB media (5% Peptone, 0.1% Tryptic Soy Broth) at 37° C., washed and diluted to an OD600 of 0.05, grown to mid-log phase, washed again, and re-suspended to an OD600 of 0.05. The culture was then added to test tubes containing test compound(s) and grown for 6 hours. Elastase B activity was quantified by incubation of 100 μl of filtered culture supernatant with 5 mg Elastin Congo Red substrate and 1 ml of 10 mM Tris pH 7.2, 1 mM CaCl2 for 6 hours at 37° C. with agitation. Elastase B activity is represented by the OD495 of the enzyme assay following reaction quenching with EDTA and centrifugation to remove unreacted substrate, divided by the OD600 of the cell culture. The same assay was run with strain PAO-1, however no exogenous autoinducers were added.

pyocyanin [7] = assay: pyocyanin assay, strain PAO-JP2; format: cell-based, P. aeruginosa PAO-JP2; details: PAO-JP2, 25 μM each of AI1 and AI2, 18 hours
Protocol: (§6) For the pyocyanin assay, cells were grown overnight in LB then washed in fresh media and diluted to an OD600 of 0.05. This culture was grown for 3-4 hours to mid-log phase (OD600 of 0.3-0.5), then diluted to an OD600 of 0.05, and aliquoted to test tubes containing an appropriate amount of test compound(s). Following 18 hours of growth, pyocyanin was extracted from filtered culture supernatants and quantified using standard methods (Essar et al., J. Bacteriol. 172:884-900 (1990), which is hereby incorporated by reference in its entirety).

LasR [8] = molecular target: T1, LasR; assay: lasI-gfp reporter antagonist (competition against AI1) assay, PAO-JP2 (plasI-LVAgfp); format: cell-based, P. aeruginosa; details: for reduction of GFP expression (lasI-gfp): 1 μM AI1
Protocol: as §1
The methods were the same as described in Example 2 (GFP Reporter Assay), except that 1 μM AI1 was added to each well in combination with the library compound. The fluorescence/OD600 of each compound competing against AI1 was reported relative to the fluorescence/OD600 of the positive control of AI1 alone, which was set to 1. When strain PAO-JP2 (prhlI-LVAgfp) was used, the positive control was 1 μM AI1 and 10 μM AI2. Eight compounds that inhibited reporter gene expression by greater than 50% were identified (see, e.g., FIG. 6).
as §2

Elastase B [9] = assay: elastase (Elastin Congo Red) assay, strain PAO-JP2; format: cell-based, P. aeruginosa PAO-JP2; details: PAO-JP2, 10-100 μM compound, competing against 5 μM AI1 and 10 μM AI2
Protocol: as §4, §5

pyocyanin [10] = assay: pyocyanin assay, wild type strain PAO1; format: cell-based, P. aeruginosa PAO1; details: wild type PAO1, no AIs added
Protocol: as §6

T1 sequence (P25084 whole entry): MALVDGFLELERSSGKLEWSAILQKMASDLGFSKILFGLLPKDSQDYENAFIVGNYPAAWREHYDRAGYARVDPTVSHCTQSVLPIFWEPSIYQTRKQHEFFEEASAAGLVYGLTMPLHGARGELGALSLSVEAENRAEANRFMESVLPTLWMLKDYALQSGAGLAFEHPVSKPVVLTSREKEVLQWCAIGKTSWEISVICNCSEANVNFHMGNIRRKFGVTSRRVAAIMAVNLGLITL
T2 sequence (P54292 whole entry): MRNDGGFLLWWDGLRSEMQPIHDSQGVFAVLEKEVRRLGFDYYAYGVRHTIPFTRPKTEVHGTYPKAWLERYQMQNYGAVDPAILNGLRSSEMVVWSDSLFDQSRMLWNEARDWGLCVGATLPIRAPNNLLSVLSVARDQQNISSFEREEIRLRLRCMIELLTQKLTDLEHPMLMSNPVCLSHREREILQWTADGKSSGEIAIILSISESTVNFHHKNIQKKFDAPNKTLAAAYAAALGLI

Q: What does the source list for CCCCCCCCCC(=O)CC(=O)N[C@@H]1CCCC[C@H]1O (relative stereo) [Compound 4, N-(trans-2-hydroxycyclohexyl)-3-oxododecanamide]?
A: lasB-lacZ reporter activation (beta-galactosidase activity) (LasR [1]; E. coli MG4 (pKDT37), 6 hour incubation): activated; LasR inducing activity compared with natural AI1 (LasR [1]; lasI-gfp and lasB-lacZ reporters (FIG. 9)): comparable to the natural AI1; agonist activity (induction of lasI-gfp reporter) (LasR [2]): strong agonist activity; also recorded: strongest agonist; agonist activity (induction of lasI-gfp reporter) (LasR [2]; listed as 3-oxo-C12-D12): activated; GFP induction, fold less than AI1 (LasR [2]; at 1 μM): 2 fold; GFP induction compared with AI1 (LasR [2]; at higher concentrations (100, 400 μM)): comparable to AI1

Q: With CCCC(=O)N[C@@H]1CCC[C@H]1O (relative stereo) [Compound 6, N-(trans-2-hydroxy)cyclopentylbutanamide] as the compound, how does the “AI2 agonist activity (induction of rhlI-gfp reporter)” value (shortened to “AI2 agonist activity”) (RhlR [3]) read?
A: no agonist activity

Q: And the “AI2 agonist activity” value (RhlR [3]; listed as C4-(2-aminocylcopentanol))?
A: could not activate RhlR

Q: What about the “antagonist activity on rhlI-gfp reporter” value (RhlR [4]) of the same compound?
A: no inhibition

Q: How did the “GFP expression (rhlI-gfp)” value (RhlR [3]; 400 μM analog, 1 μM AI1) turn out when CCCC(=O)N[C@@H]1CCCC[C@H]1O (relative stereo) [Compound 8, N-(trans-2-hydroxy)cyclohexylbutanamide] was run?
A: moderate GFP expression

Q: What about the “AI2 agonist activity” value (RhlR [3]) of the same compound?
A: very little AI2 agonist activity

Q: With CCCCCCCCCC(=O)CC(=O)Nc1ccccc1O [3-oxo-C12-D10] as the compound, how does the “effect on biofilm morphology” value (PAO1 (pTdK-GFP) biofilm; wild type PAO1) read?
A: fluffy

Q: What about the “effect on biofilm formation” value (PAO1 (pTdK-GFP) biofilm; wild type PAO1, no exogenous autoinducers) of the same compound?
A: did not interfere with biofilm formation

Q: And the “effect on biofilm formation” value [5]?
A: slightly enhanced rather than inhibited

Q: What about the “effect on elastase activity” value (Elastase B [6]) of the same compound?
A: reduced elastase activity

Q: And the “effect on pyocyanin production” value (pyocyanin [7])?
A: not able to interfere with pyocyanin production

Q: What about the “las circuit inhibition, comparison of potency” value (LasR [8]) of the same compound?
A: more potent than 3

Q: What about the “reduction of GFP expression (lasI-gfp)” value (LasR [8]; 10 μM compound) of the same compound?
A: approximately 60%

Q: What about the “reduction of GFP expression (lasI-gfp)” value (LasR [8]; 100 μM compound) of the same compound?
A: ~90%

Q: And the “inhibition of GFP expression (rhlI-gfp)” value (RhlR [4]; 50 μM compound)?
A: more than 80%

Q: And the “reduction of elastase activity” value (Elastase B [9])?
A: approximately 50%

Q: What about the “effect on pyocyanin production” value (pyocyanin [10]) of the same compound?
A: not able to interfere with pyocyanin production

Q: Which “agonist activity (induction of lasI-gfp reporter)” value (LasR [2]) does the source give for CCCCCCCCCC(=O)CC(=O)NC1CCCC1=O (stereo not shown) [Compound 1, N-(2-oxocyclopentyl)-3-oxododecanamide] here?
A: able to induce the reporter only at a very high concentration; also recorded: weak agonist

Q: How did the “AI2 agonist activity” value (RhlR [3]) turn out when CCCC(=O)NC1CCCC1=O (stereo not shown) [Compound 5, N-2-oxocyclopentylbutanamide] was run?
A: strong agonist activity

Q: How did the “AI2 agonist activity” value (RhlR [3]) turn out when CCCC(=O)NC1CCCCC1=O (stereo not shown) [Compound 7, N-2-oxocyclohexylbutanamide] was run?
A: strong agonist activity
